In ChEMBL document CHEMBL1201862, “PubChem BioAssay data set” (2004):
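Growth conditions: 96-well plates. Treatment: test compound, 48 hours, 5 concentrations. Analysis: linear interpolation between bracketing concentrations; unreached endpoints set to highest concentration. Here, GI50 denotes the concentration required for 50% inhibition of growth.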 Calls of active or inactive are those of the source. Cut-off read from the data, not from the text of the source: active = GI50 up to about 1.1 µM and inactive = higher.

Key:
Assay in all cases: NCI tumour cell line growth inhibition, 48 h
[1] = system: SF-268
[2] = system: SF-295
[3] = system: NCI-H522
[4] = system: NCI-H226
[5] = system: SR
[6] = system: DLD-1
[7] = system: SNB-75
[8] = system: HCT-15
[9] = system: RXF 393
[10] = system: SNB-19
[11] = system: TK-10
[12] = system: COLO 205
[13] = system: MOLT-4
[14] = system: HCC 2998
[15] = system: UO-31
[16] = system: SK-MEL-2
[17] = system: SK-MEL-5
[18] = system: Hs-578T
[19] = system: NCI/ADR-RES
[20] = system: MDA-N

Row | Compound | GI50 [1] | GI50 [2] | GI50 [3] | GI50 [4] | GI50 [5] | GI50 [6] | GI50 [7] | GI50 [8] [µM] | GI50 [9] | GI50 [10] | GI50 [11] | GI50 [12] | GI50 [13] | GI50 [14] | GI50 [15] | GI50 [16] | GI50 [17] | GI50 [18] | GI50 [19] | GI50 [20]
1 | N#CC(C(=O)/C(=N\NC(N)=O)C(C#N)c1ccccc1)c1ccccc1 (stereo unspecified) | > 100 µM (inactive) | > 100 µM (inactive) | > 100 µM (inactive) | > 100 µM (inactive) | > 100 µM (inactive) | > 100 µM (inactive) | > 100 µM (inactive) | > 100 | > 100 µM (inactive) | > 100 µM (inactive) | > 100 µM (inactive) | > 100 µM (inactive) | > 100 µM (inactive) | > 100 µM (inactive) | > 100 µM (inactive) | > 100 µM (inactive) | – | – | – | –
2 | N#Cc1ccc2cc3c(cc2c1)OCO3 | > 100 µM (inactive) | > 100 µM (inactive) | > 100 µM (inactive) | 39.4 µM (inactive) | – | > 100 µM (inactive) | 26 µM (inactive) | > 100 | 61.5 µM (inactive) | 50.7 µM (inactive) | – | > 100 µM (inactive) | 49.2 µM (inactive) | > 100 µM (inactive) | 21.5 µM (inactive) | > 100 µM (inactive) | – | – | – | –
3 | COc1cc2cc3c4c(cc(OC)c(OC)c4c2cc1OC)CCN3C(=O)OCCBr | > 100 µM (inactive) | > 100 µM (inactive) | 37.6 µM (inactive) | 0.259 µM (active) | 18.7 µM (inactive) | 45.5 µM (inactive) | 46 µM (inactive) | 60 | 42.5 µM (inactive) | > 100 µM (inactive) | > 100 µM (inactive) | 78 µM (inactive) | 27.8 µM (inactive) | 42.3 µM (inactive) | > 100 µM (inactive) | > 100 µM (inactive) | 53.1 µM (inactive) | – | – | –
4 | CCCCCCCCCCCCCCNC(=O)CCC(NC(=O)c1ccc(N(C)Cc2cnc3nc(N)nc(N)c3n2)cc1)C(=O)NCCCCCCCCCCCCCC (stereo unspecified) | 2.49 µM (inactive) | 7.19 µM (inactive) | 5.04 µM (inactive) | > 52.1 µM (inactive) | 0.139 µM (active) | – | 14.3 µM (inactive) | 2.52 | 11.6 µM (inactive) | 17.1 µM (inactive) | > 39.1 µM (inactive) | 11.8 µM (inactive) | 0.982 µM (active) | 6.01 µM (inactive) | 13.8 µM (inactive) | 31 µM (inactive) | 1.77 µM (inactive) | 8.39 µM (inactive) | 39.8 µM (inactive) | 0.244 µM (active)
5 | C/C1=N\[N-]C(=O)c2ccccc2C(=O)N/N=C(\C)c2cccc1n2.O=[N+]([O-])[O-].[Zn+2] | > 100 µM (inactive) | > 100 µM (inactive) | > 100 µM (inactive) | – | – | > 100 µM (inactive) | 19.5 µM (inactive) | > 100 | – | > 100 µM (inactive) | > 100 µM (inactive) | > 100 µM (inactive) | > 100 µM (inactive) | > 100 µM (inactive) | > 100 µM (inactive) | > 100 µM (inactive) | > 100 µM (inactive) | – | – | –
6 | CSc1ccc2c(cc1=O)C(NC(=O)c1ccccc1)CCc1cc(O)c(O)c(O)c1-2 (stereo unspecified) | 22.9 µM (inactive) | 4.22 µM (inactive) | 17.1 µM (inactive) | 21.2 µM (inactive) | – | 16.7 µM (inactive) | 2.91 µM (inactive) | 18.1 | 24.5 µM (inactive) | 5.69 µM (inactive) | 52.8 µM (inactive) | 23.2 µM (inactive) | 21.3 µM (inactive) | 4.84 µM (inactive) | 77.8 µM (inactive) | 5.5 µM (inactive) | 2.61 µM (inactive) | – | – | –
7 | CCN(CC)CCNc1ccc2nnn3c4ccc(C)cc4c(=O)c1c23 | 10.2 µM (inactive) | 5.02 µM (inactive) | 7.67 µM (inactive) | 10.8 µM (inactive) | 3.37 µM (inactive) | 6.08 µM (inactive) | 10.8 µM (inactive) | 9.62 | – | 12.7 µM (inactive) | 12.2 µM (inactive) | 5.87 µM (inactive) | 3.07 µM (inactive) | – | 10.2 µM (inactive) | 13.7 µM (inactive) | 10.7 µM (inactive) | – | – | –
8 | NC(=O)c1cccc([N+](=O)[O-])c1 | > 100 µM (inactive) | > 100 µM (inactive) | > 100 µM (inactive) | > 100 µM (inactive) | – | > 100 µM (inactive) | > 100 µM (inactive) | > 100 | – | > 100 µM (inactive) | > 100 µM (inactive) | > 100 µM (inactive) | > 100 µM (inactive) | > 100 µM (inactive) | > 100 µM (inactive) | > 100 µM (inactive) | > 100 µM (inactive) | – | – | –
9 | Cn1cnnc1Sc1c([N+](=O)[O-])ncn1C | > 100 µM (inactive) | > 100 µM (inactive) | 12.6 µM (inactive) | > 100 µM (inactive) | 26.5 µM (inactive) | 38.5 µM (inactive) | > 100 µM (inactive) | – | – | > 100 µM (inactive) | > 100 µM (inactive) | 34.3 µM (inactive) | 31 µM (inactive) | > 100 µM (inactive) | > 100 µM (inactive) | 50.6 µM (inactive) | > 100 µM (inactive) | – | – | –
